Laboratory results taken from US20250177473A1, “PEPTIDE REGULATORS OF METABOLISM” (Metabico, Inc., priority 2022, published 2025).
Residues, ends and D or L forms follow the SMILES beside them.

Tests used:
[1] = target: T1, NPSR1 (the receptor of neuropeptide S) (Homo sapiens, UniProt Q6W5P4); experiment: Full Functional GPCR Panel (Eurofins Cerep): NPSR1, intracellular Ca2+; assay type: cell-based; conditions: EPSI 100 μM; 10 nM NPS; HEK-293 cells expressing NPSR1
T1 construct: host or cells: HEK-293
T1 sequence (Q6W5P4 1-371): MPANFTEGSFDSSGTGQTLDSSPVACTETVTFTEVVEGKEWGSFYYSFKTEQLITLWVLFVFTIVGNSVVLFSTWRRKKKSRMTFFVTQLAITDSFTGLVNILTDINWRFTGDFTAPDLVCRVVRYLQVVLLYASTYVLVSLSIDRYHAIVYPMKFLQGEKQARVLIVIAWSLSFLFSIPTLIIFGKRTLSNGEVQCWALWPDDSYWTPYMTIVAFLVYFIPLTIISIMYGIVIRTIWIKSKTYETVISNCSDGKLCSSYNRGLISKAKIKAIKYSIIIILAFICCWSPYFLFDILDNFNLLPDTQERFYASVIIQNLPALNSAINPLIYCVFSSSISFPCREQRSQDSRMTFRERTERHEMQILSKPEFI
Method: (§1) EPSI peptide was tested in the dose of 100 μM in 326 functional assays (163 GPCRs both in agonist and antagonist modes) combined in Full Functional GPCR Panel (item P343) provided by Eurofins Cerep SA.
(§2) Each cell-based assay was performed by application of the peptide to cell lines expressing individual receptors with subsequent measuring Ca2+, IP1, or cAMP depending on the receptor type. In the case of antagonist mode assays, the peptide was applied together with the control agonist.
(§3) Cellular agonist effect was calculated as a % of control response to a known reference agonist for each target and cellular antagonist effect was calculated as a % inhibition of control reference agonist response for each target.
EPSI peptide induced activating effect provided by 10 nM of control agonist NPS (neuropeptide S) by 56.4±8.5% in HEK-293 cells expressing NPSR1 (the receptor of neuropeptide S). Activation of NPSR1 was measured by the changes in intracellular Ca2+ levels.

[2] = target: T2, LPAR3 (Homo sapiens, UniProt Q9UBY5); experiment: Full Functional GPCR Panel: LPAR3; assay type: cell-based; conditions: EPSI 100 μM; 30 nM Lysophosphatidic acid; CHO cells expressing LPAR3
T2 construct: host or cells: CHO
T2 sequence (Q9UBY5 1-353): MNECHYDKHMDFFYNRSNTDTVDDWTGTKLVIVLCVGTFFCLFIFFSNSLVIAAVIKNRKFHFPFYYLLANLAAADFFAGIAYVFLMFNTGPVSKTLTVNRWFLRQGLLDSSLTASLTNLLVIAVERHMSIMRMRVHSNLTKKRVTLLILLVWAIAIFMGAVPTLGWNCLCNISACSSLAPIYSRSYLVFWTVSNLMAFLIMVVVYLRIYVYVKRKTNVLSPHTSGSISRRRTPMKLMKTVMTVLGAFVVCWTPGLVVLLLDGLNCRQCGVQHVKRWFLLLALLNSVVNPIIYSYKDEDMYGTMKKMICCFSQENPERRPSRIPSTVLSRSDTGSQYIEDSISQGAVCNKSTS
Method: as §1, §2, §3
EPSI peptide induced activating effect provided by 30 nM of control agonist Lysophosphatidic acid by 29.2±3.0% in CHO cells expressing LPAR3.

[3] = test system: C57BL/6 mice on a high-fat diet; experiment: Tolerability observations in HFD mice study; assay type: in vivo, mouse; conditions: EPSI 5 mg/kg i.n. and i.p.
Method: Groups of 10 animals were formed from the existing groups from Stage 2, with similar mean body weight (Table 6). The animals' bodyweight was monitored three times a week, water, and feed consumption—weekly. After the last treatment, the animals were euthanized for necropsy and their blood collected. The internal organs were examined for the presence of macro damage and weighed. The adipose tissue surrounding the epididymis was evaluated as a marker of obesity in animals. For histological examination, samples of adipose tissue and liver tissue were fixed in 10% formalin solution for further histological analysis.
During necropsy, the body's external state, internal surfaces, the cranial cavity, chest, abdominal and pelvic cavities with organs and tissues located in them, the neck with organs and tissues, the skeleton, and the musculoskeletal system were examined. The organs and tissues were fixed in 10% formalin. Liver and adipose tissue samples were weighed and stored in 10% formalin for subsequent histological analysis.

[4] = target: T3, M2 muscarinic receptor (Homo sapiens, UniProt P08172); experiment: Full Functional GPCR Panel: M2 muscarinic receptor, cAMP; assay type: cell-based; conditions: EPSI 100 μM; vs 3 μM acetylcholine; CHO cells expressing M2
T3 construct: host or cells: CHO
T3 sequence (P08172 1-466): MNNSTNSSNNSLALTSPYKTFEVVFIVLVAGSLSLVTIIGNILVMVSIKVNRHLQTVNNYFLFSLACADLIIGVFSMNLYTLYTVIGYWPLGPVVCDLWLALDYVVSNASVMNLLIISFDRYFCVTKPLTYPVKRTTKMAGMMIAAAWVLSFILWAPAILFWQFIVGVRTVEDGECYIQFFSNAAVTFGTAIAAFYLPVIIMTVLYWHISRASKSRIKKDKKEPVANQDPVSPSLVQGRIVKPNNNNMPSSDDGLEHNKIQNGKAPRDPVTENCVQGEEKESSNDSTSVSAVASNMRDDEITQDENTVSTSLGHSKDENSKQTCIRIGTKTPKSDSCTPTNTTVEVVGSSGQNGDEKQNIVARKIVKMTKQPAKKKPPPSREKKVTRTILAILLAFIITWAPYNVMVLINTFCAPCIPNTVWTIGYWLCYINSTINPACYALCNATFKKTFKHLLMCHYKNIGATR
Method: as §1, §2, §3

[5] = target: T4, GPR109A receptor (Homo sapiens, UniProt Q8TDS4); experiment: Full Functional GPCR Panel: GPR109A antagonist mode; assay type: cell-based; conditions: EPSI 100 μM; 300 nM nicotinic acid; RBL cells expressing GPR109A
T4 construct: host or cells: RBL
T4 sequence (Q8TDS4 whole entry): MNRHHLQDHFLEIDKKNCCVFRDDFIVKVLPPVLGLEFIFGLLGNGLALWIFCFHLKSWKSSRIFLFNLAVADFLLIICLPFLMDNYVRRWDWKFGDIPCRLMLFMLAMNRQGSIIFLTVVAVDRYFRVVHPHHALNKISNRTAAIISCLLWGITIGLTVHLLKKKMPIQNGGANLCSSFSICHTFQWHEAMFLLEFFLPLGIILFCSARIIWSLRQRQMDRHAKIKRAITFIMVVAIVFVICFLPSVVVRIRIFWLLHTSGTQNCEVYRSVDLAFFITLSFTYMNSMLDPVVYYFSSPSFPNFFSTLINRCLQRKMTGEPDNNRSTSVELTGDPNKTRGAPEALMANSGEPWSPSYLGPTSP
Method: as §1, §2, §3

[6] = target: T5, FFAR2 (GPR43) receptor (Homo sapiens, UniProt O15552); experiment: FFAR2 cell-based functional antagonist assay, intracellular Ca2+; conditions: EPSI 100 μM; 1 mM sodium acetate; HEK-293 cells expressing FFAR2
T5 construct: host or cells: HEK-293
T5 sequence (O15552 1-330): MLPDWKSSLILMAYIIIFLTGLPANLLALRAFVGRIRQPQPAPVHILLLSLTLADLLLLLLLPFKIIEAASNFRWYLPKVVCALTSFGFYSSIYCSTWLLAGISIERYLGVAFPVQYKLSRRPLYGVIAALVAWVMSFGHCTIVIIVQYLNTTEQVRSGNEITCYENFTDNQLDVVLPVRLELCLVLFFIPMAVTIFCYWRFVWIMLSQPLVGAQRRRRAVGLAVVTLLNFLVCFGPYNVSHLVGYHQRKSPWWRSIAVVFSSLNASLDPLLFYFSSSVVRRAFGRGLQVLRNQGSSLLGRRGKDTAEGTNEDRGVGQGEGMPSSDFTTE
Method: as §1, §2, §3
EPSI peptide acted as antagonist of FFAR2 (GPR43) receptor reducing by 28.0±1.5% the signal induced by 1 mM of sodium acetate in HEK-293 cells expressing FFAR2.
EPSI peptide was tested in the doses of 0.03, 0.16, 4, and 20 μM in FFAR2 cell-based functional antagonistic assay provided by Eurofins Cerep SA. The assay was performed in HEK-293 cell line expressing FFAR2 and stimulated with 1 mM sodium acetate (control reference agonist) for FFAR2 signaling induction. Fluorimetric measurement of intracellular Ca2+ levels was performed after the peptide application. Cellular antagonist effect was calculated as a % inhibition of control reference agonist response.

[7] = test system: pStat3 (Y705) in the hypothalamus; experiment: pStat3 (Y705) immunohistochemistry of mouse hypothalamus after administration; assay type: in vivo, C57Bl/6J mice; conditions: 60 minutes after administration; EPSI 10 mg/kg intranasally; leptin 5 mg/mL intraperitoneally; 24 h food deprivation
Method: Fifteen C57Bl/6J 15 weeks old mice (5 animals per group) were used in the study.
We performed food deprivation 24 hours prior to the administration of the compounds. The animals of the experimental group were administered with 10 mg/kg EPSI intranasally (EPSI was dissolved in 10 μL of saline per mouse, 5 μL in each nostril). Positive control animals were administered with 5 mg/mL leptin intraperitoneally (leptin was dissolved in 100 μL of saline per mouse). Negative control mice were administered with 100 μL of saline intraperitoneally. The mice were euthanized 60 minutes after the administration of the compounds.
Narcosis was performed using the combination of Zoletil (20 mg/kg) and Rometar (5 mg/kg). Next, transcardial perfusion was performed with saline to wash out the blood, then with a 10% formalin solution. After complete fixation, the animal bodies were decapitated, the brain was extracted and additionally fixed in 10% formalin, after which it was washed in PBS 3 times for 30 minutes and placed overnight in a 30% sucrose solution in PBS until the tissue was completely impregnated.
The brain samples were placed in a mold, and poured with the freezing medium. […]
The images were received using an inverted microscope Nikon Eclipse Ni. The number of positive cells was calculated using ImageJ software. […]

[8] = test system: male mice of CBA and C57Bl/6 hybrids, food deprived 12 hours; experiment: Home cage feed consumption test; assay type: in vivo, mouse; conditions: leptin 1 mg/kg i.p. before testing
Method: The work was performed on 30 mature male mice of the first generation of CBA and C57Bl/6 hybrids weighing 22-24 grams. The animals were divided into treatment groups (Table 1).
Solutions for intranasal (i.n.) administration were prepared by dissolving the peptide in saline. The volume of i.n. administration: 1 μl per 1 g of animal weight. Solutions for intraperitoneal (i.p.) administration were prepared by dissolving the drug in saline. The volume of […]. administration: 10 μl per 1 g of animal weight. Solutions were prepared directly on the day of the experiment before the experiment.
All manipulations with animals were performed at the end of the adaptation period of 14 days.
Day 1—Adaptation of animals to the home cage food consumption test. In the evening, animals were deprived of food for 12 hours (overnight).
Day 2—Administration of the test substances and the food consumption test in a home cage for 1.5 hours. Before and after the test, the animals were weighed.
This test was performed to assess the appetite of animals after the treatment with tested compounds. The test was performed in 2 days. […]
Statistical data processing was carried out using nonparametric criteria (Mann-Whitney) for samples with a distribution other than normal. Normally distributed data were analyzed with one-way ANOVA (only Treatment factor) or repeated measures ANOVA (dynamics) with post hoc Fisher test. […]

Compound	induction of activating effect of control agonist NPS (intracellular Ca2+) [1] [%]	induction of activating effect of control agonist Lysophosphatidic acid [2] [%]	local irritating effect (nasal mucosa; abdominal wall skin and subcutaneous tissue) [3]	toxic effects throughout the experiment ([3]; up to 28 days)	reduction of cAMP levels, efficiency compared to control agonist [4] [%]	reduction of signal evoked by nicotinic acid (antagonist mode) [5] [%]	reduction of signal induced by sodium acetate (antagonist mode) [6] [%]	pStat3-positive cells in hypothalamic sections (ratio to total nuclei) [7] [%]	amount of food consumed over 90 minutes vs control [8]
CC[C@H](C)[C@H](NC(=O)[C@H](CO)NC(=O)[C@@H]1CCCN1C(=O)[C@@H](N)CCC(=O)O)C(=O)O [EPSI] (H-EPSI-OH)	56.4±8.5	29.2±3.0	no local irritating effect	no toxic effects	26.8±6.8	37.1±2.1	28.0±1.5		
leptin								3	did not differ
